The nature of data set [1]: Dynamic moisture sorption assessment. Particulars: for weight gain, 5% to 70% relative humidity / weight gain, 5% to 90% relative humidity: room temperature. It counts as physicochemical. On the procedure: Dynamic moisture sorption (DMS) measurement was performed using a VTI atmospheric microbalance, SGA-100 system (VTI Corp., Hialeah, Fla. 33016). A weighed sample was used and the humidity was lowest possible value (close to 0% RH) at the start of the analysis. The DMS analysis consisted of an initial drying step (0% RH) for 120 minutes, followed by two cycles of sorption and desorption with a scan rate of 5% RH/step over the humidity range of 5% RH to 90% RH. The DMS run was performed isothermally at 25° C.

Data set [2] can be described thus: Solid state stability assessment of Form 1. The class given is physicochemical. On the procedure: Samples of the Form 1 crystalline free form of the invention were stored at 25° C. and 60% relative humidity (RH) and at 40° C. and 75% RH under two configurations a) open glass vial and b) closed glass vial placed inside an HDPE bottle containing desiccant. HDPE bottle was induction sealed. At specific intervals, the contents of a representative sample were removed and analyzed by HPLC for chemical purity (shown below as HPLC Purity (% a/a)).

In the next data set the target is T1, SRC (Homo sapiens, UniProt P12931).
T1 construct: made in house; host or cells: T7 phage in E. coli (BL21-derived) or HEK-293
T1 sequence (P12931 whole entry): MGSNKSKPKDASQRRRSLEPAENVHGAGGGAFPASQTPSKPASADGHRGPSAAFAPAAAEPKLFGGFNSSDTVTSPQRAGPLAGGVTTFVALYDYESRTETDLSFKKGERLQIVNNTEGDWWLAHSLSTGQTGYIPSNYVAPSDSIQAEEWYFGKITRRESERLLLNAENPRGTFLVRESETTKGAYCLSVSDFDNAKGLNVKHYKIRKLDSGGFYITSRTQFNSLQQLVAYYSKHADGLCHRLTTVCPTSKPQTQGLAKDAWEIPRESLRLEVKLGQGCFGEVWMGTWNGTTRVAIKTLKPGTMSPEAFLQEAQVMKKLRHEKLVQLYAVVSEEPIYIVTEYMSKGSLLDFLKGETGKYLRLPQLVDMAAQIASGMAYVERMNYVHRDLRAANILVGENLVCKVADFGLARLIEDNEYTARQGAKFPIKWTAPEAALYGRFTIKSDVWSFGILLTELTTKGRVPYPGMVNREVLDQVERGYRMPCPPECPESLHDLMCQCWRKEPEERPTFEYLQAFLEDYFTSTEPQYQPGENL
The experiment in a line: Kinome screen, SRC. The class given is binding. Particulars: screened at 1 μM. On the procedure:
(§1) Kinase-tagged T7 phage strains were grown in parallel in 24-well blocks in an E. coli host derived from the BL21 strain. E. coli were grown to log-phase and infected with T7 phage from a frozen stock (multiplicity of infection=0.4) and incubated with shaking at 32° C. until lysis (90-150 minutes). The lysates were centrifuged (6,000×g) and filtered (0.2 μm) to remove cell debris. The remaining kinases were produced in HEK-293 cells and subsequently tagged with DNA for qPCR detection.
(§2) Streptavidin-coated magnetic beads were treated with biotinylated small molecule ligands for 30 minutes at room temperature to generate affinity resins for kinase assays. The liganded beads were blocked with excess biotin and washed with blocking buffer (SeaBlock (Pierce), 1% BSA, 0.05% Tween 20, 1 mM DTT) to remove unbound ligand and to reduce non-specific phage binding. […] Test compounds were prepared as 40× stocks in 100% DMSO and directly diluted into the assay. All reactions were performed in polypropylene 384-well plates in a final volume of 0.04 ml. […] The beads were then re-suspended in elution buffer (1×PBS, 0.05% Tween 20, 0.5 μM non-biotinylated affinity ligand) and incubated at room temperature with shaking for 30 minutes. The kinase concentration in the eluates was measured by qPCR.

The test system of the next data set is 35 different kinases. Briefly: Kinome screen: GINI coefficient. It counts as binding. The conditions noted are these: panel of 35 different kinases; higher number = more selective. Here is the method:
as §1
as §2, with “The” for “The beads were then re-suspended in elution buffer (1×PBS, 0.05% Tween 20, 0.5 μM non-biotinylated affinity ligand) and incubated at room temperature with shaking for 30 minutes. The”
Both compounds 1 and C-1 were screened against 35 different kinases. The Gini coefficient was determined for both compounds. […]

A further data set concerns the target T2, GSK3B (Homo sapiens, UniProt P49841).
T2 construct: made in house; host or cells: T7 phage in E. coli (BL21-derived) or HEK-293
Briefly: Kinome screen, GSK3B. The class given is binding. The conditions noted are these: screened at 1 μM. On the procedure: as §1, §2

A further data set has as its target T3, CSF1R (Homo sapiens, UniProt P07333).
T3 construct: made in house; host or cells: T7 phage in E. coli (BL21-derived) or HEK-293
The experiment in a line: Kinome screen, CSF1R. The class given is binding. Particulars: screened at 1 μM. Here is the method: as §1, §2

The test system of data set [3] is BEAS-2B human lung epithelial cells. Briefly: CellTiter-Glo cell viability/cytotoxicity assay. The conditions noted are these: BEAS-2B cells, 48 h, concentration at 15% inhibition threshold. It counts as cell-based. Here is the method:
A CellTiter-Glo luminescent cell viability/cytotoxicity assay was carried out in BEAS-2B human lung epithelial cells (ATCC) under the normal growth condition.
Cells were grown at 37° C. in a 5% CO2 humidified incubator in 50% DMEM/50% F-12 medium (Life Technologies) supplemented with 10% FBS (Hyclone), 100 U/mL penicillin, 100 μg/mL streptomycin (Life Technologies), and 2 mM GlutaMAX (Life Technologies). On day 1 of the assay, cells were seeded at a 500 cells/well density in white 384-well tissue culture plates (Corning) with 25 μL medium, and were allowed to adhere overnight in the incubator. On day 2 of the assay, 5 μL of medium containing dose-responses of test compounds was added, and incubated at 37° C. for 48 h. 30 μL of CellTiter-Glo detection solution (Promega) was subsequently added, mixed on an orbital shaker for 5 min, and incubated for additional 10 min before being read on the EnVision reader. Luminescence signals were recorded and percent DMSO control values were calculated.
For dose-response analysis, percent DMSO control data were plotted vs. compound concentrations to derive dose-response curves by line connecting each data point. The concentration at which each curve crosses the 15% inhibition threshold is defined as CC15.
(In general: Cellular ATP, detected with luciferase, serves as a proxy for viable cell number.)

For another data set, the target named is T4, SLK (Homo sapiens, UniProt Q9H2G2).
T4 construct: made in house; host or cells: T7 phage in E. coli (BL21-derived) or HEK-293
T4 sequence (Q9H2G2 whole entry): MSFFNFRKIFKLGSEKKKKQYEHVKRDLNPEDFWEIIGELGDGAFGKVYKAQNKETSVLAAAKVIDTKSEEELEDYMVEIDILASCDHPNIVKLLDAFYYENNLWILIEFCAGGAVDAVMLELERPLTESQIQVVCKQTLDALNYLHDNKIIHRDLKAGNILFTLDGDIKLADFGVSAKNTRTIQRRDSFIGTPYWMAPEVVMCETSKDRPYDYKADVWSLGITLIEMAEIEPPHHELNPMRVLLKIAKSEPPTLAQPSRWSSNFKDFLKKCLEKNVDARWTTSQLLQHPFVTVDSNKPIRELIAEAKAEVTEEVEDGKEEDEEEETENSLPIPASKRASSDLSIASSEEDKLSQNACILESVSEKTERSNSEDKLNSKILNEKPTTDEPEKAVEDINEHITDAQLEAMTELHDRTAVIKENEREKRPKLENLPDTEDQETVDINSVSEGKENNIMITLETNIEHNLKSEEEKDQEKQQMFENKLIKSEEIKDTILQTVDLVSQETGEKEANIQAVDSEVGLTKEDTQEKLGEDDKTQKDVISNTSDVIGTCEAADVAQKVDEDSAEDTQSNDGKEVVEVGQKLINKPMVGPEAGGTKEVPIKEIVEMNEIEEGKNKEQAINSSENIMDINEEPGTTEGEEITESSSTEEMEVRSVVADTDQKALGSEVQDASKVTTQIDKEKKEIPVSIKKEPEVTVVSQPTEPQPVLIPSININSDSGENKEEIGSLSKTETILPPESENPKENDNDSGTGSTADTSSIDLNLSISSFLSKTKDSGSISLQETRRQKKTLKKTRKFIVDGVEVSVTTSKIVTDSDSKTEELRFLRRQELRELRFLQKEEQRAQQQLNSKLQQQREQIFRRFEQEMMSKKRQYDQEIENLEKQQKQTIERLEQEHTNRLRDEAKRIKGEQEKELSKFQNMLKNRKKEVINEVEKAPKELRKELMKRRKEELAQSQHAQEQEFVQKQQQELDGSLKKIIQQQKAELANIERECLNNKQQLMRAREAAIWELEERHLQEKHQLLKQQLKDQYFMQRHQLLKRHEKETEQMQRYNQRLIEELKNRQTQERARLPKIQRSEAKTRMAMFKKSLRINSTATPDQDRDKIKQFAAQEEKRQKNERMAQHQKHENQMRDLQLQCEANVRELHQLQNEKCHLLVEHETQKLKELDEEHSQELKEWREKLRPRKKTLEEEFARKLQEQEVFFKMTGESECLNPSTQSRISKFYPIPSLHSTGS
Briefly: Kinome screen, SLK. It counts as binding. Particulars: screened at 1 μM. On the procedure:
as §1, §2

In the next data set the target is T5, PAK4 (Homo sapiens, UniProt O96013).
T5 construct: made in house; host or cells: T7 phage in E. coli (BL21-derived) or HEK-293
The experiment in a line: Kinome screen, PAK4. The class given is binding. The conditions noted are these: screened at 1 μM. On the procedure: as §1, §2

For a further data set, the target named is T6, SYK (Homo sapiens, UniProt P43405).
T6 construct: made in house; host or cells: T7 phage in E. coli (BL21-derived) or HEK-293
Briefly: Kinome screen, SYK. It counts as binding. Particulars: screened at 1 μM. Here is the method:
as §1, §2

The next data set addresses T7, EPHB6 (Homo sapiens, UniProt O15197).
T7 construct: made in house; host or cells: T7 phage in E. coli (BL21-derived) or HEK-293
Briefly: Kinome screen, EPHB6. The class given is binding. Particulars: screened at 1 μM. Here is the method: as §1, §2

The next data set deals with T8, ALK (Homo sapiens, UniProt Q9UM73).
T8 construct: made in house; host or cells: T7 phage in E. coli (BL21-derived) or HEK-293
The experiment in a line: Kinome screen, ALK. The class given is binding. Particulars: screened at 1 μM. On the procedure:
as §1, §2

Another data set concerns the target T9, PKAC-ALPHA (Homo sapiens, UniProt P17612).
T9 construct: made in house; host or cells: T7 phage in E. coli (BL21-derived) or HEK-293
The experiment in a line: Kinome screen, PKAC-ALPHA. The class given is binding. Particulars: screened at 1 μM. On the procedure: as §1, §2

Another data set has as its target T10, PLK4 (Homo sapiens, UniProt O00444).
T10 construct: made in house; host or cells: T7 phage in E. coli (BL21-derived) or HEK-293
Briefly: Kinome screen, PLK4. It counts as binding. The conditions noted are these: screened at 1 μM. Here is the method: as §1, §2

The target in another data set is T11, CDK9 (Homo sapiens, UniProt P50750).
T11 construct: made in house; host or cells: T7 phage in E. coli (BL21-derived) or HEK-293
T11 sequence (P50750 whole entry): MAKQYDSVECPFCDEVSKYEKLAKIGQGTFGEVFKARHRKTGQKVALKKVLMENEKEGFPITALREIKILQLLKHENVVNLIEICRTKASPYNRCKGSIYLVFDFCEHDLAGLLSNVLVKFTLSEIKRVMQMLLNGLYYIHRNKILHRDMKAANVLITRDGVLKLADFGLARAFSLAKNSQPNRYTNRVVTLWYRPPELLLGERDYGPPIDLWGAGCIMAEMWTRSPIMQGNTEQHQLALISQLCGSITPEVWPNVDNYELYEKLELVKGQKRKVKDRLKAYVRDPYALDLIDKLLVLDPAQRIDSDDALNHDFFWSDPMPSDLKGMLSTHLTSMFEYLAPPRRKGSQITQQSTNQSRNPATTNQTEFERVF
Briefly: Kinome screen, CDK9. It counts as binding. Particulars: screened at 1 μM. Here is the method: as §1, §2

The target of the next data set is T12, CDK2 (Homo sapiens, UniProt P24941).
T12 construct: made in house; host or cells: T7 phage in E. coli (BL21-derived) or HEK-293
The experiment in a line: Kinome screen, CDK2. The conditions noted are these: screened at 1 μM. The class given is binding. Here is the method: as §1, §2

In another data set the target is T13, CDK7 (Homo sapiens, UniProt P50613).
T13 construct: made in house; host or cells: T7 phage in E. coli (BL21-derived) or HEK-293
T13 sequence (P50613 whole entry): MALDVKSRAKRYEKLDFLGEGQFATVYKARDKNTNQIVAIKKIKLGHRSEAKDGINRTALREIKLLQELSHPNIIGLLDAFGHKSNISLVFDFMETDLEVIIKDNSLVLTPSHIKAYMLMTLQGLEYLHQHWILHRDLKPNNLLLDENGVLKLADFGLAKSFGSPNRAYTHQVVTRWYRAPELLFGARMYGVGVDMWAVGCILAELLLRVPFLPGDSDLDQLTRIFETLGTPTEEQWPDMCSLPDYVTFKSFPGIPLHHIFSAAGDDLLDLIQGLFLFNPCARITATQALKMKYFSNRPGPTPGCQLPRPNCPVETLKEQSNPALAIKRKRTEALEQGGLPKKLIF
Briefly: Kinome screen, CDK7. The class given is binding. The conditions noted are these: screened at 1 μM. On the procedure:
as §1, §2

Another data set addresses T14, KIT (Homo sapiens, UniProt P10721).
T14 construct: made in house; host or cells: T7 phage in E. coli (BL21-derived) or HEK-293
Briefly: Kinome screen, KIT. It counts as binding. The conditions noted are these: screened at 1 μM. Here is the method:
as §1, §2

The target of the next data set is T15, VEGFR2 (Homo sapiens, UniProt P35968).
T15 construct: made in house; host or cells: T7 phage in E. coli (BL21-derived) or HEK-293
T15 sequence (P35968 20-1356): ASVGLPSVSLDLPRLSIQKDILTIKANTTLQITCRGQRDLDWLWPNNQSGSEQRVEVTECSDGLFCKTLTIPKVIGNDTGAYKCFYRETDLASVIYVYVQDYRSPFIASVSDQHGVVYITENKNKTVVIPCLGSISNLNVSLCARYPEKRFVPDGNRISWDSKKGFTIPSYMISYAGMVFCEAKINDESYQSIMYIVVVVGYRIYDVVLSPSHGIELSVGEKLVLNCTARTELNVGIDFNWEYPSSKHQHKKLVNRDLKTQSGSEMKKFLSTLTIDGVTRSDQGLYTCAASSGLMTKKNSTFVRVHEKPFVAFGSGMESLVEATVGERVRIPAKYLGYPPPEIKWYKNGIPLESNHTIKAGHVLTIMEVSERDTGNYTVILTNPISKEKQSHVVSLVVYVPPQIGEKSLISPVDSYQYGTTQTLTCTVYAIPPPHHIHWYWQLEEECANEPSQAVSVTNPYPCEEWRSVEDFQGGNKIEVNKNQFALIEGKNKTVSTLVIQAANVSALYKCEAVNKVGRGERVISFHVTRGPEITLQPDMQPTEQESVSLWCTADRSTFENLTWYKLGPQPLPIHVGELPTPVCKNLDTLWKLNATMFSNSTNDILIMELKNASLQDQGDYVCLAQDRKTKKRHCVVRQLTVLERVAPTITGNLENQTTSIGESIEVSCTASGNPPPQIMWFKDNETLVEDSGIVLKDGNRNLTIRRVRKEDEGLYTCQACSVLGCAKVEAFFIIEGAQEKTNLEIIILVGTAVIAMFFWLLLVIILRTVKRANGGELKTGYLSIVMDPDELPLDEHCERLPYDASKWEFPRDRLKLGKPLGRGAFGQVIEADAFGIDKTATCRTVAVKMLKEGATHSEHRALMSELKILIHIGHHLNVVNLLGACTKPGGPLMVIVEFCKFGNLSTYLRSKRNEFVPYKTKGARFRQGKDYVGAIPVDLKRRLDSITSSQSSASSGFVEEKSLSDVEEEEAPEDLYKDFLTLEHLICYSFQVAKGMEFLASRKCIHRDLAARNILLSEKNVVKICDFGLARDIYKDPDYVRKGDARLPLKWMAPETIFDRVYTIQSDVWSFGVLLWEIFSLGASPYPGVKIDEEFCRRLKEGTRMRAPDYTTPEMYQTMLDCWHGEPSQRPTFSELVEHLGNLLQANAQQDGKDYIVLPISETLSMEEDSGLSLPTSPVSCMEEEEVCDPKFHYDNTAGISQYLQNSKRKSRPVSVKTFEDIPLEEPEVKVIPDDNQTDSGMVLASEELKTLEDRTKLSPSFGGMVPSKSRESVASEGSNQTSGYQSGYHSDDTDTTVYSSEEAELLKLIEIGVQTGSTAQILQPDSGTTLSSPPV
Briefly: Kinome screen, VEGFR2. It counts as binding. The conditions noted are these: screened at 1 μM. Here is the method: as §1, §2

The next data set addresses T16, AURKA (Homo sapiens, UniProt O14965).
T16 construct: made in house; host or cells: T7 phage in E. coli (BL21-derived) or HEK-293
Briefly: Kinome screen, AURKA. It counts as binding. Particulars: screened at 1 μM. On the procedure: as §1, §2

Usually inhibition stands for the drop in the measured response relative to a control, in per cent. A higher inhibition goes with a response far below the control.

T3 sequence (P07333 20-972): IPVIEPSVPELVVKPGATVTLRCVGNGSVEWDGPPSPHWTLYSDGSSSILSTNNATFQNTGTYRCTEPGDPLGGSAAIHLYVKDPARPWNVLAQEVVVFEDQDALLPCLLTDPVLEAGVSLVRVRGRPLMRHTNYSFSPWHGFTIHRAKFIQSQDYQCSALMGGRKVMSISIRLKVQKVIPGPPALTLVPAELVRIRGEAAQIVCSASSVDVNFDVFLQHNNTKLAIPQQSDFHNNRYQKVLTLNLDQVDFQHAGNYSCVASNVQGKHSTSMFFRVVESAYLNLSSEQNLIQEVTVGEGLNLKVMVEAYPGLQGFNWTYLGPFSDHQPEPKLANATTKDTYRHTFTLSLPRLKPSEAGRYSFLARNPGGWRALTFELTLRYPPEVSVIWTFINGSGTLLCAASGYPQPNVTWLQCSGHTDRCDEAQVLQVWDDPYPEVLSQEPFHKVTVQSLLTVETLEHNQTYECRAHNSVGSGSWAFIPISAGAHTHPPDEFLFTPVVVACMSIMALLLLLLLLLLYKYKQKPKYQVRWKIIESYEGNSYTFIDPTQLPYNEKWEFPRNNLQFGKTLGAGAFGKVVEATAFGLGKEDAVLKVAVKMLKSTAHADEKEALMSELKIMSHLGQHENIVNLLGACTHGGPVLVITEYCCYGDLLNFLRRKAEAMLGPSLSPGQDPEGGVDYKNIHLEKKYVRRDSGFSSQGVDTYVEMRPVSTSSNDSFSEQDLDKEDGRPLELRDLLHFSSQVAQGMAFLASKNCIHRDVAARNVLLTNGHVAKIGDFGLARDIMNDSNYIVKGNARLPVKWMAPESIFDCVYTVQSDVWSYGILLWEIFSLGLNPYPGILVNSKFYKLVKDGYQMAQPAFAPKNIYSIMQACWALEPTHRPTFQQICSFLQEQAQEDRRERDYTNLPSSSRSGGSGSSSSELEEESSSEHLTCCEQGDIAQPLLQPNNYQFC

On to `CCc1cc(O)c(F)cc1-c1cc(F)c2c(-c3nc4c([nH]3)CCN(C(=O)CN3CCOCC3)C4)n[nH]c2c1` [Form 2, 1-(2-(6-(2-Ethyl-5-fluoro-4-hydroxyphenyl)-4-fluoro-1H-indazol-3-yl)-1,4,6,7-tetrahydro-5H-imidazo[4,5-c]pyridin-5-yl)-2-morpholinoethan-1-one], for which, in [1], the “hygroscopicity” value was “non-hygroscopic”; the “weight gain, 5% to 70% relative humidity” value is on record as “about 0.12%”; the “weight gain, 5% to 90% relative humidity” value is recorded as “about 0.18%”.

As for `CCc1cc(O)c(F)cc1-c1cc(F)c2c(-c3nc4c([nH]3)CCN(C(=O)CN3CCOCC3)C4)n[nH]c2c1` [Form 1, 1-(2-(6-(2-Ethyl-5-fluoro-4-hydroxyphenyl)-4-fluoro-1H-indazol-3-yl)-1,4,6,7-tetrahydro-5H-imidazo[4,5-c]pyridin-5-yl)-2-morpholinoethan-1-one], the “hygroscopicity” value in [1] was “slightly-hygroscopic”. The “weight gain, 5% to 70% relative humidity” value in [1] is listed as “about 0.99%”. Besides, the “weight gain, 5% to 90% relative humidity” value in data set [1] was “about 1.32%”. Further, the “HPLC Purity” value came to 98.72 % a/a in data set [2] (2 weeks, 40° C./75% RH Open); 98.75 % a/a in data set [2] (4 weeks, 25° C./60% RH Closed With Desiccant); 98.75 % a/a in [2] (4 weeks, 25° C./60% RH Open); 98.75 % a/a in data set [2] (4 weeks, 40° C./75% RH Closed With Desiccant); 98.70 % a/a in [2] (4 weeks, 40° C./75% RH Open); 98.87 % a/a in data set [2] (8 weeks, 25° C./60% RH Closed With Desiccant). Further, the “HPLC Purity” value in data set [2] (8 weeks, 25° C./60% RH Open) stood at 98.75 % a/a; in data set [2] (8 weeks, 40° C./75% RH Closed With Desiccant) it was 98.80 % a/a; in data set [2] (8 weeks, 40° C./75% RH Open), 98.97 % a/a; in [2] (24 weeks, 25° C./60% RH Closed With Desiccant), 99.02 % a/a; in data set [2] (24 weeks, 25° C./60% RH Open), 98.78 % a/a; in data set [2] (24 weeks, 40° C./75% RH Closed With Desiccant), 99.06 % a/a. Further, the “HPLC Purity” value in data set [2] (24 weeks, 40° C./75% RH Open) came out at 98.89 % a/a; in data set [2] (36 weeks, 25° C./60% RH Closed With Desiccant), 98.80 % a/a; in data set [2] (36 weeks, 25° C./60% RH Open), 98.75 % a/a; in data set [2] (36 weeks, 40° C./75% RH Closed With Desiccant), 98.86 % a/a; in [2] (36 weeks, 40° C./75% RH Open), 98.71 % a/a; in data set [2] (time point 0 weeks), 98.73 % a/a. Further, the “changes in chemical purity” value in data set [2] (after 36 weeks at accelerated conditions of 40° C. and 75% relative humidity) is “no statistically significant changes”.

With `CCc1cc(O)c(F)cc1-c1ccc2c(-c3nc4c([nH]3)CCN(C(=O)CN3CCOCC3)C4)n[nH]c2c1` [C-1, 1-(2-(6-(2-Ethyl-5-fluoro-4-hydroxyphenyl)-1H-indazol-3-yl)-1,4,6,7-tetrahydro-5H-imidazo[4,5-c]pyridin-5-yl)-2-morpholinoethan-1-one, reference compound], the inhibition at 1 µM at SRC amounted to 100%; against GSK3B, 68%; against CSF1R, 100%; at SLK, 100%; against PAK4, 99%; against SYK, 78%. Moreover, the inhibition at 1 µM turned out to be 98% against EPHB6; 81% against ALK; 70% at PKAC-ALPHA; 68% at PLK4; 95% at CDK9; 53% on CDK2. Moreover, the inhibition at 1 µM amounted to 99% against CDK7, 99% on KIT, 63% against VEGFR2 and 57% against AURKA. This compound displayed a GINI coefficient with 35 different kinases of 0.46. This compound also registered a CC15 in [3] of 630 nM.

The values above are taken from patent publication US10493077B2, “Fused imidazo-piperidine JAK inhibitor compound” (THERAVANCE BIOPHARMA R&D IP, LLC, priority 2017, dated 2019).
